Measured values as given in article PMC6979384, “Characterization of the plant homeodomain (PHD) reader family for their histone tail interactions” (Epigenetics & Chromatin, 2020).
Where no end group is shown, it is not given here. [ ]: non-standard residue; d: D form. Lys(Me2) = CN(C)CCCC[C@H](N)C(=O)O

Legend:
Experiment in all cases: Histone peptide microarray
Format in all cases: binding, human
AIRE (PP) = settings: sheet "Array Heatmap"; GST-tagged AIRE (PP); arrays performed twice, total replicate number n = 4
In short: (§1)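 A peptide microarray holding 293 synthetic histone peptides with individual or combinatorial modifications was probed with each GST-PHD protein at 0.5 μM. Values represent mean intensity (±SD) from four replicates.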

BAZ2B = settings: sheet "Array Heatmap"; GST-tagged BAZ2B; arrays performed twice, total replicate number n = 4
In short: as §1

BPTF (PB) = settings: sheet "Array Heatmap"; GST-tagged BPTF (PB); arrays performed twice, total replicate number n = 4
In short: as §1

CHD4 (PPCC) = settings: sheet "Array Heatmap"; GST-tagged CHD4 (PPCC); arrays performed twice, total replicate number n = 4
In short: as §1

CHD5 (PCC) = settings: sheet "Array Heatmap"; GST-tagged CHD5 (PCC); arrays performed twice, total replicate number n = 4
In short: as §1

CHD5 (PPCC) = settings: sheet "Array Heatmap"; GST-tagged CHD5 (PPCC); arrays performed twice, total replicate number n = 4
In short: as §1

DIDO1 = settings: sheet "Array Heatmap"; GST-tagged DIDO1; arrays performed twice, total replicate number n = 4
In short: as §1

DPF2 (PPC2W2) = settings: sheet "Array Heatmap"; GST-tagged DPF2 (PPC2W2); arrays performed twice, total replicate number n = 4
In short: as §1

ING1 = settings: sheet "Array Heatmap"; GST-tagged ING1; arrays performed twice, total replicate number n = 4
In short: as §1

ING2 = settings: sheet "Array Heatmap"; GST-tagged ING2; arrays performed twice, total replicate number n = 4
In short: as §1

ING3 = settings: sheet "Array Heatmap"; GST-tagged ING3; arrays performed twice, total replicate number n = 4
In short: as §1

ING4 = settings: sheet "Array Heatmap"; GST-tagged ING4; arrays performed twice, total replicate number n = 4
In short: as §1

ING5 = settings: sheet "Array Heatmap"; GST-tagged ING5; arrays performed twice, total replicate number n = 4
In short: as §1

KDM4C (TTP) = settings: sheet "Array Heatmap"; GST-tagged KDM4C (TTP); arrays performed twice, total replicate number n = 4
In short: as §1

KDM5A (1) = settings: sheet "Array Heatmap"; GST-tagged KDM5A (1); arrays performed twice, total replicate number n = 4
In short: as §1

KDM5A (3) = settings: sheet "Array Heatmap"; GST-tagged KDM5A (3); arrays performed twice, total replicate number n = 4
In short: as §1

KDM5B (1) = settings: sheet "Array Heatmap"; GST-tagged KDM5B (1); arrays performed twice, total replicate number n = 4
In short: as §1

KDM5B (3) = settings: sheet "Array Heatmap"; GST-tagged KDM5B (3); arrays performed twice, total replicate number n = 4
In short: as §1

KDM7A = settings: sheet "Array Heatmap"; GST-tagged KDM7A; arrays performed twice, total replicate number n = 4
In short: as §1

MLL5 = settings: sheet "Array Heatmap"; GST-tagged MLL5; arrays performed twice, total replicate number n = 4
In short: as §1

MORC3 (CW) = settings: sheet "Array Heatmap"; GST-tagged MORC3 (CW); arrays performed twice, total replicate number n = 4
In short: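 Each reader, produced as a GST fusion and purified, was tested at 0.5 μM on synthetic histone peptides (293 in total) carrying single or combinatorial marks. Intensities averaged over four replicates.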

PHF13 = settings: sheet "Array Heatmap"; GST-tagged PHF13; arrays performed twice, total replicate number n = 4
In short: as §1

PHF21A = settings: sheet "Array Heatmap"; GST-tagged PHF21A; arrays performed twice, total replicate number n = 4
In short: as §1

PHF23 = settings: sheet "Array Heatmap"; GST-tagged PHF23; arrays performed twice, total replicate number n = 4
In short: as §1

PHF2 = settings: sheet "Array Heatmap"; GST-tagged PHF2; arrays performed twice, total replicate number n = 4
In short: as §1

PHF8 = settings: sheet "Array Heatmap"; GST-tagged PHF8; arrays performed twice, total replicate number n = 4
In short: as §1

PHRF1 (RP) = settings: sheet "Array Heatmap"; GST-tagged PHRF1 (RP); arrays performed twice, total replicate number n = 4
In short: as §1

RAG2 = settings: sheet "Array Heatmap"; GST-tagged RAG2; arrays performed twice, total replicate number n = 4
In short: as §1

SP140L = settings: sheet "Array Heatmap"; GST-tagged SP140L; arrays performed twice, total replicate number n = 4
In short: as §1

TAF3 = settings: sheet "Array Heatmap"; GST-tagged TAF3; arrays performed twice, total replicate number n = 4
In short: as §1

TRIM66 (PB) = settings: sheet "Array Heatmap"; GST-tagged TRIM66 (PB); arrays performed twice, total replicate number n = 4
In short: as §1

H3K4A + K9me2 (1-15): H3 1-15 (ARTAQTAR[Lys(Me2)]STGGKA; UniProt P68431 2-16, looked up, variant K4A)
Array Heatmap signal, AIRE (PP) (AIRE (PP)): 0.5312 | Array Heatmap signal, BAZ2B (BAZ2B): 0.512 | Array Heatmap signal, BPTF (PB) (BPTF (PB)): 0.4333 | Array Heatmap signal, CHD4 (PPCC) (CHD4 (PPCC)): 0.6182 | Array Heatmap signal, CHD5 (PCC) (CHD5 (PCC)): 0.7736 | Array Heatmap signal, CHD5 (PPCC) (CHD5 (PPCC)): 0.6167 | Array Heatmap signal, DIDO1 (DIDO1): 0.8787 | Array Heatmap signal, DPF2 (PPC2W2) (DPF2 (PPC2W2)): 0.7164 | Array Heatmap signal, ING1 (ING1): 0.7124 | Array Heatmap signal, ING2 (ING2): 0.695 | Array Heatmap signal, ING3 (ING3): 0.5843 | Array Heatmap signal, ING4 (ING4): 0.5574 | Array Heatmap signal, ING5 (ING5): 0.4518 | Array Heatmap signal, KDM4C (TTP) (KDM4C (TTP)): 0.6461 | Array Heatmap signal, KDM5A (1) (KDM5A (1)): 0.5206 | Array Heatmap signal, KDM5A (3) (KDM5A (3)): 0.6587 | Array Heatmap signal, KDM5B (1) (KDM5B (1)): 0.7016 | Array Heatmap signal, KDM5B (3) (KDM5B (3)): 0.59 | Array Heatmap signal, KDM7A (KDM7A): 0.6423 | Array Heatmap signal, MLL5 (MLL5): 0.7648 | Array Heatmap signal, MORC3 (CW) (MORC3 (CW)): 0.5677 | Array Heatmap signal, PHF13 (PHF13): 0.6939 | Array Heatmap signal, PHF21A (PHF21A): 0.468 | Array Heatmap signal, PHF23 (PHF23): 0.6377 | Array Heatmap signal, PHF2 (PHF2): 0.6167 | Array Heatmap signal, PHF8 (PHF8): 0.5196 | Array Heatmap signal, PHRF1 (RP) (PHRF1 (RP)): 0.5557 | Array Heatmap signal, RAG2 (RAG2): 0.4111 | Array Heatmap signal, SP140L (SP140L): 0.3864 | Array Heatmap signal, TAF3 (TAF3): 0.4571 | Array Heatmap signal, TRIM66 (PB) (TRIM66 (PB)): 0.6262
